{"source": "patent EP3046573B1", "about": "“AMYLIN ANALOGUES” (Zealand Pharma A/S, priority 2013, dated 2015)", "key": {"[1]": {"biological_target": "T1, human calcitonin receptor (hCTR2) (Homo sapiens, UniProt P30988)", "T1 construct": "expressed in transfected cells", "T1 sequence (P30988 25-474)": "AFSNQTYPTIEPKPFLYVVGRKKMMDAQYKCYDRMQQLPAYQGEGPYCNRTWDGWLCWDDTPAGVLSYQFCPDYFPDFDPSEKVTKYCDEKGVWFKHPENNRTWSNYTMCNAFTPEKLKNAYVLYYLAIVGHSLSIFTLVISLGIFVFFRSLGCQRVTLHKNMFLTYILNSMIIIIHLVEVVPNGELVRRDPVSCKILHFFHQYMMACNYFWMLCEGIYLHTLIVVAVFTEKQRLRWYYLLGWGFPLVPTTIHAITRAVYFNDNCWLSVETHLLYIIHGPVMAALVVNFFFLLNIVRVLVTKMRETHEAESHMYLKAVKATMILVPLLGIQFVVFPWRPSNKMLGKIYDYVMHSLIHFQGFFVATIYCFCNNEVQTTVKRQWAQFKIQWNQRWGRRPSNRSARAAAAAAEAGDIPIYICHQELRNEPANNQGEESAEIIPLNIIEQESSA", "assay": "hCTR2 assay: induction of cAMP (AlphaScreen cAMP Assay kit) in COS7 cells expressing hCTR2", "format": "cell-based", "in_short": "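Stable RAMP-naive COS7 clone expressing hCTR2 was stimulated with increasing peptide concentrations in Tyrode buffer (pH 7.4) with 100 µM IBMX and 0.1% casein for 15 min at 37° C. Cells were lysed and cAMP measured by AlphaScreen. EC50 and efficacy relative to pramlintide came from 4PL curve fits.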"}, "[2]": {"biological_target": "T2, human amylin receptor 3 (hAMYR3) consisting of hCTR2 co-expressed with human Receptor Activity Modifying Protein 3 (hRAMP3) (Homo sapiens, UniProt O60896+P30988)", "T2 construct": "expressed in transfected cells", "T2 sequence (P30988 25-474)": "T1 sequence (P30988 25-474)", "T2 sequence (O60896 24-148 partner)": "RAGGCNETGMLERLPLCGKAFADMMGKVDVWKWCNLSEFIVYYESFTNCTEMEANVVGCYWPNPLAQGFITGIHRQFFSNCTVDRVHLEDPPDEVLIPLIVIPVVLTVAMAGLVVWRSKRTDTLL", "assay": "hAMYR3 assay: induction of cAMP (AlphaScreen cAMP Assay kit) in COS7 cells expressing hAMYR3", "format": "cell-based", "in_short": "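Stable COS7 clone co-expressing hCTR2 and hRAMP3, stimulated 15 min at 37° C with increasing peptide in Tyrode buffer pH 7.4 with 100 µM IBMX and 0.1% casein. cAMP measured by AlphaScreen after lysis; EC50 and % efficacy versus pramlintide from 4PL fit.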"}, "[3]": {"assay": "Solubility assessment (turbidity absorbance at 325 nm)", "format": "physicochemical", "conditions": "stock 2 mg/ml diluted 1:1, ambient temperature (typically 25°C), n=1", "in_short": "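Stock 2 mg/ml peptide, H2O/HCl pH 2.5; 1:1 into 100 mM buffers: acetate pH 4.0/5.0, His pH 6.0/7.0, phosphate pH 6.0/7.0/7.5. A280 + A325, ~25°C, n=1. Soluble ≥ 1 mg/ml if A325 ≤ 0.02.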"}}, "note": "Numbered stars: 1 amine (or outer) side, 2 acyl side, 3 side chain; on linkers, the order of the positions; unused ones are H or OH. Bridge positions count the residues as written; N and C are the ends. Square brackets hold non-standard residues; d marks the D form. Peptide text beside a SMILES is read from it. * marks the point of attachment. C20 diacid = O=C(O)CCCCCCCCCCCCCCCCCCC(=O)*; γGlu = O=C(O)[C@H](CCC(=O)[*:2])N[*:1]; NMeI = CC[C@H](C)[C@H](NC)C(=O)O; Sar = CNCC(=O)O", "data": [{"compound": "CC[C@H](C)[C@@H](C(=O)N[C@@H](CC(C)C)C(=O)N[C@@H](CO)C(=O)N[C@@H](CO)C(=O)N[C@H](C(=O)N[C@@H](CC(N)=O)C(=O)N[C@H](C(=O)NCC(=O)N[C@@H](CO)C(=O)N[C@@H](CC(N)=O)C(=O)N[C@H](C(=O)N1CCC[C@@H]1C(N)=O)[C@@H](C)O)C(C)C)[C@@H](C)O)N(C)C(=O)[C@H](C)NC(=O)CN(C)C(=O)[C@H](Cc1ccccc1)NC(=O)[C@H](CC(N)=O)NC(=O)[C@H](CC(N)=O)NC(=O)[C@H](CO)NC(=O)[C@H](CO)NC(=O)[C@H](CCCNC(=N)N)NC(=O)[C@H](Cc1c[nH]cn1)NC(=O)[C@H](CC(C)C)NC(=O)[C@H](Cc1ccccc1)NC(=O)[C@H](CCC(=O)O)NC(=O)[C@H](C)NC(=O)[C@H](CC(C)C)NC(=O)[C@H](CCCNC(=N)N)NC(=O)[C@H](CCC(N)=O)NC(=O)[C@@H](NC(=O)[C@H](C)NC(=O)[C@@H]1CSSC[C@H](NC(=O)[C@H](CCCNC(=N)N)NC(=O)CC[C@H](NC(=O)CCCCCCCCCCCCCCCCCCC(=O)O)C(=O)O)C(=O)N[C@@H](CC(N)=O)C(=O)N[C@@H]([C@@H](C)O)C(=O)N[C@@H](C)C(=O)N[C@@H]([C@@H](C)O)C(=O)N1)[C@@H](C)O", "note": "[Compound 104, [19CD]-isoGlu-RC()NTATC()ATQRLAEFLHRSSNNF-Gly(Me)-A-Ile(Me)-LSSTNVGSNT-DPro-NH2] ({C20 diacid-γGlu}-RCNTATCATQRLAEFLHRSSNNF[Sar]A[NMeI]LSSTNVGSNT[dP]-NH2; disulfide 2-7)", "values": [{"measurement": "EC50", "setting": "[1]", "result": 0.7, "unit": "nM"}, {"measurement": "EC50", "setting": "[2]", "result": 4.8, "unit": "nM"}, {"measurement": "Solubility, Acetate buffer pH 4", "setting": "[3]; 100 mM acetate buffer pH 4.0", "result": "SS (SS indicates solubility ≥ 1mg/ml)"}, {"measurement": "Solubility, Acetate buffer pH 5", "setting": "[3]; 100 mM acetate buffer pH 5.0", "result": "SS (SS indicates solubility ≥ 1mg/ml)"}, {"measurement": "Solubility, Histidine buffer pH 6", "setting": "[3]; 100 mM histidine buffer pH 6.0", "result": "SS (SS indicates solubility ≥ 1mg/ml)"}, {"measurement": "Solubility, Histidine buffer pH 7", "setting": "[3]; 100 mM histidine buffer pH 7.0", "result": "SS (SS indicates solubility ≥ 1mg/ml)"}, {"measurement": "Solubility, Phosphate buffer pH 6", "setting": "[3]; 100 mM phosphate buffer pH 6.0", "result": "II (II indicates solubility ≤ 1 mg/ml)"}, {"measurement": "Solubility, Phosphate buffer pH 7", "setting": "[3]; 100 mM phosphate buffer pH 7.0", "result": "SS (SS indicates solubility ≥ 1mg/ml)"}, {"measurement": "Solubility, Phosphate buffer pH 7.5", "setting": "[3]; 100 mM phosphate buffer pH7.5", "result": "SS (SS indicates solubility ≥ 1mg/ml)"}]}]}
